Earlier results, collected in patent US5972946A, “Acetamide derivative, process for preparing the same, and a pharmaceutical composition containing the same” (Dainippon Pharmaceutical Co., Ltd., priority 1995, dated 1999).

Tested on: Bacillus subtilis
Settings: Pharmazie, 43, 537-538 (1988); cited from earlier work

CC(=O)c1c(C)nc(-c2ccccc2)nc1SCC(=O)Nc1ccc(Cl)cc1 [2-(5-acetyl-6-methyl-2-phenyl-4-pyrimidinylthio)-N-(4-chlorophenyl)acetamide]
antibacterial activity against Bacillus subtilis: shows antibacterial activity against Bacillus subtilis
